Source: article PMC7997411, “Discovery and Optimization of Selective Inhibitors of Meprin α (Part II)” (Pharmaceuticals, 2021)
pIC50: −log10 of the molar value.

Assays:
meprin α = molecular target: T1, meprin α (Homo sapiens, UniProt Q16819); assay: Meprin α assay in a 384-well plate (fluorogenic substrate Mca-YVADAPK-K(Dnp)); type: biochemical; conditions: pre-incubation with meprin α for 0–3 h
T1 construct: Strep-tag; made in house; host or cells: BTI-TN-5B1-4 insect cells (baculovirus, amplified in Sf9)
T1 sequence (Q16819 66-746): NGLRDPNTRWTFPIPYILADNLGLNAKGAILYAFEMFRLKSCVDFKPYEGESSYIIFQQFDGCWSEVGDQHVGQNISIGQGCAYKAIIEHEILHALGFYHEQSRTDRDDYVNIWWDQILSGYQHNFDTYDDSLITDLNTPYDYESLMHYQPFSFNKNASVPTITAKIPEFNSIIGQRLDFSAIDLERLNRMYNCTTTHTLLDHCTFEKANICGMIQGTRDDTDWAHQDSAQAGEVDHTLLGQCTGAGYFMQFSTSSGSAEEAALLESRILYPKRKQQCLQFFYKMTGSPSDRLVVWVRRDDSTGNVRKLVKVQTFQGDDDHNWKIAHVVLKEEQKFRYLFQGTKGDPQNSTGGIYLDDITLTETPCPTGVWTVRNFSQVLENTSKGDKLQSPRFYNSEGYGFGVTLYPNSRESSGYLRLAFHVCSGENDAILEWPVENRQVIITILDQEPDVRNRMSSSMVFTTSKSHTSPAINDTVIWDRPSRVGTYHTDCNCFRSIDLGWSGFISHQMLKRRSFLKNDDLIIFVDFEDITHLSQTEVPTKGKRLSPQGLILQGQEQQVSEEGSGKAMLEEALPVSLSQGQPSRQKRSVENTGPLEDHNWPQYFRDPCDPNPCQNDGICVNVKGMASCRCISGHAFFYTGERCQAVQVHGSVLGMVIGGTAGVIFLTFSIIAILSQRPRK

[1] = system: MMP-2, MMP-3, MMP-8, MMP-9, MMP-10, MMP-14, ADAM10, and ADAM17; assay: Selectivity panel of related metzincins; type: biochemical; conditions: all tested enzymes, Figure 4B
Protocol: Both assays followed the same general protocol. 2.5 µL of 2× enzyme solution (20 nM) in assay buffer (10 mM HEPES, 0.001% Brij-35, pH 7.5) were added to solid bottom black 384 plates (Greiner, cat# 789075). Next, test compounds and pharmacological controls were added to corresponding wells using a 384-pin tool device (V&P Scientific, San Diego). After 30 min incubation at RT, the reactions were started by addition of 2.5 µL of 2× solutions of substrate (R&D Systems cat#: ES010, Mca-KPLGL-Dpa-AR-NH2, 20 µM). Reactions were incubated at RT for 2 h, after which the fluorescence was measured using a Perkin Elmer Viewlux multimode microplate imager (λexcitation = 324 nm, λemission = 393 nm). All compounds were tested in 10-point, 1:3 serial dilutions dose-response format starting with highest concentration of 100 µM. IC50 values were determined using non-linear regression analysis using the GraphPad Prism 8.0 suite of programs.
All assays followed the same general protocol. […] Reactions were incubated at RT for 1 h, after which the fluorescence was measured using the Synergy H4 multimode microplate reader (Biotek Instruments) (λexcitation = 324 nm, λemission = 390 nm). […] IC50 values were determined using non-linear regression analysis using the GraphPad Prism 8.0 suite of programs.

time dependence of inhibition: change in IC50 values (meprin α): no change in IC50 values
pIC50 [1]: < 4.00
SMILES: COc1cc(OC)nc(SCc2nnc(SCC(=O)NO)n2-c2ccc(N(C)C)cc2)n1 [SR24717]
